Test results as given in US20230250096A1, “SUBSTITUTED PHENYL-1H-PYRROLO[2,3-c] PYRIDINE DERIVATIVES” (Janssen Pharmaceutica NV, priority 2021, published 2023).

Tests used:
MEIS1 mRNA expression = MEIS1 mRNA expression assay (Quantigene Singleplex) in MOLM14 cells; assay type: cell-based, human; conditions: 48 hours incubation
Method in brief: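 MOLM14 cells, 3,750/well, exposed to increasing compound concentrations for 48 h. MEIS1 mRNA measured by QuantiGene Singleplex branched-DNA hybridization (lysis 45 min, hybridization 18–22 h, both 55 °C), normalized to RPL28. IC50 fitted to background-corrected fold change versus DMSO.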

[1] = target: T1, menin/MLL (terbium chelate-labeled menin, FITC-MBM1 peptide) (Homo sapiens, UniProt O00255, T541A); assay: Menin/MLL homogenous time-resolved fluorescence (HTRF) assay; assay type: binding; conditions: 30 min incubation
T1 construct: Menin (a.a 1-610-6xhis tag, 2.3 mg/mL in 20 mM Hepes)
T1 sequence (O00255 with tags, fused parts or gaps T541A): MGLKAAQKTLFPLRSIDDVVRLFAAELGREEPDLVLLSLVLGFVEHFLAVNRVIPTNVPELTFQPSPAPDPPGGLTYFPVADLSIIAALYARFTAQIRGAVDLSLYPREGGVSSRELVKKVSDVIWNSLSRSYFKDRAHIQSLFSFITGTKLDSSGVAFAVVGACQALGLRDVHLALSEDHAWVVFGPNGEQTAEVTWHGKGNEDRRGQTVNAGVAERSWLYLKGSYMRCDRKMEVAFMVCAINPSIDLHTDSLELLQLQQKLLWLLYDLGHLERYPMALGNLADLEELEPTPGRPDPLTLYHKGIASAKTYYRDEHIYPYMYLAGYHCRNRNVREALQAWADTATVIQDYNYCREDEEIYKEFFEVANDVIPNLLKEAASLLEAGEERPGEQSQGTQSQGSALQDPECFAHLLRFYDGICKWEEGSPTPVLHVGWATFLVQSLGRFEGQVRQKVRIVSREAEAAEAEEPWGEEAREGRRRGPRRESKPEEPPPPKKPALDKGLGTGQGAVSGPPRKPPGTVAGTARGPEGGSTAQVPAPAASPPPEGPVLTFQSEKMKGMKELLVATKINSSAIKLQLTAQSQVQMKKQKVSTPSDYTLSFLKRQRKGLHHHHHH
Method in brief: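 Terbium-labeled menin (a.a. 1-610, His-tagged; […]) pre-incubated 30 min with compound, then 75 nM FITC-MBM1 peptide added for 15 min at ambient temperature in Tris pH 7.5 buffer, 0.5% DMSO. HTRF 520/490 nm ratio read; IC50 from 11-point four-fold titrations, typically from 10 μM.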

| SMILES | IC50 (MEIS1 mRNA expression; Homo sapiens, MOLM-14, 48 h) | IC50 [1] | IC50 (MEIS1 mRNA expression) |
| --- | --- | --- | --- |
| CC(=O)N1CC2CCC(N3CC(Cc4cn(-c5ccc(F)cc5C(=O)N(C)C(C)C)c5cncc(C)c45)C3)C2C1 (stereo not drawn) [Compound 306] | 159 nM | 0.468 nM | – |
| Cc1cncc2c1c(CC1CN(CC3CCN(C(=O)C4(O)CC4)CC3)C1)cn2-c1ccc(F)cc1C(=O)N(C)C(C)C [Compound 251] | 83 nM | 0.066 nM | – |
| CC[C@H]([C@H]1C[C@@H](N2C[C@H]3CN(C(C)=O)C[C@@H]3C2)C1)N1CC[C@H](Cc2cn(-c3ccc(F)cc3C(=O)N(C)C(C)C)c3cncc(Cl)c23)C1 (single isomer, unassigned) [Compound 27a] | < 4.1 nM | 0.012 nM | – |
| Cc1cncc2c1c(CC1CN(C3CCCNC(=O)C3)C1)cn2-c1ccc(F)cc1C(=O)N(C)C(C)C (stereo not drawn) [Compound 290] | 170 nM | 0.393 nM | – |
| Cc1cncc2c1c(C[C@@H]1CCN(CC3CCCCC3)C1)cn2-c1ccc(F)cc1C(=O)N(C)C(C)C [Compound 193] | 41 nM | 0.071 nM | – |
| CCC([C@H]1C[C@@H](N2C[C@H]3CN(C(C)=O)C[C@@H]3C2)C1)N1CC[C@@H](Cc2cn(-c3ccc(F)cc3C(=O)N(C)C(C)C)c3cncc(Cl)c23)C1 (stereo partly drawn) [Compound 26a] | 7 nM | 0.036 nM | – |
| CCC1CCCN1C(=O)c1cc(F)ccc1-n1cc(C[C@@H]2CCN(CC3CCN(C(=O)C(C)(C)O)CC3)C2)c2c(C)cncc21 (stereo partly drawn) [Compound 342] | 107 nM | 0.188 nM | – |
| CC(=O)N[C@H]1CC[C@H](CN2CCC(Cc3cn(-c4ccc(F)cc4C(=O)N(C)C(C)C)c4cncc(C)c34)C2)CC1 (single isomer, unassigned) [Compound 72] | 182 nM | 0.173 nM | – |
| CC(=O)N1CCC(CN2CCC[C@@H](Cc3cn(-c4ccc(F)cc4C(=O)N(C)C(C)C)c4cncc(C)c34)C2)CC1 [Compound 146] | > 1000 nM | 1.22 nM | – |
| COCCN(C)CCCC(C(C)C)N1CCC(Cc2cn(-c3ccc(F)cc3C(=O)N(C)C(C)C)c3cncc(C(F)(F)F)c23)C1 (stereo not drawn) [Compound 7] | 158 nM | 0.305 nM | – |
| CC(=O)N1CC[C@@H](CN2CCC(Cc3cn(-c4ccc(F)cc4C(=O)N(C)C(C)C)c4cncc(C)c34)C2)C1 (single isomer, unassigned) [Compound 99] | ~792 nM | 0.217 nM | – |
| Cc1cncc2c1c(CC1CCN(CC3CCOCC3)CC1)cn2-c1ccc(F)cc1C(=O)N(C)C(C)C [Compound 109] | 53 nM | 0.304 nM | – |
| CC(=O)N1CCC(N2CC(Cc3cn(-c4ccc(F)cc4C(=O)N(C)C(C)C)c4cncc(C)c34)C2)C[C@H]1C (single isomer, unassigned) [Compound 292b] | ~586 nM | 0.562 nM | – |
| CC(=O)N1CCC(C2(CN3CC(Cc4cn(-c5ccc(F)cc5C(=O)N(C)C(C)C)c5cncc(C)c45)C3)CC2)CC1 [Compound 298] | 178 nM | 0.083 nM | – |
| Cc1cncc2c1c(CC1CN(CC3CCCOC3)C1)cn2-c1ccc(F)cc1C(=O)N(C)C(C)C (stereo not drawn) [Compound 289] | 31 nM | 0.055 nM | – |
| Cc1cncc2c1c(CC1CCN(C[C@H]3CCC(=O)N3)CC1)cn2-c1ccc(F)cc1C(=O)N(C)C(C)C [Compound 110] | ~1070 nM | 1.8 nM | – |
| Cc1cncc2c1c(C[C@@H]1CCN(CC3(C)CCN(C(N)=O)CC3)C1)cn2-c1ccc(F)cc1C(=O)N(C)C(C)C [Compound 217] | 21 nM | 0.039 nM | – |
| CC(=O)N1CCC(C)(CN2CC[C@@H](Cc3cn(-c4ccc(F)cc4C(=O)N(CCO)C(C)C)c4cncc(C)c34)C2)CC1 [Compound 337] | 24 nM | 0.092 nM | – |
| CC(=O)N1CCC[C@@H](CN2CC(Cc3cn(-c4ccc(F)cc4C(=O)N(C)C(C)C)c4cncc(C)c34)C2)C1 (single isomer, unassigned) [Compound 90b] | 103 nM | 0.263 nM | – |
| Cc1cncc2c1c(CC1CCN(CC3CCN(C(=O)CC4CS(=O)(=O)C4)CC3)C1)cn2-c1ccc(F)cc1C(=O)N(C)C(C)C (single isomer, unassigned) [Compound 108] | – | 0.161 nM | 153 nM |
| CC(=O)N1CCC(CN2CC[C@H](Cc3cn(-c4ccc(F)cc4[S@]4(=O)=NCCC4)c4cncc(C)c34)C2)CC1 (single isomer, unassigned) [Compound 224b] | > 1000 nM | 2.77 nM | – |
